In paper PMC12867150, “A fungi-derived cyclic peptide enhances Th9-mediated antitumor immunity by targeting ZAP70 and SREBP1” (The Journal of Clinical Investigation, 2025):
Several values for one entry are separate records, joined by “and”; a condition that tells them apart may be missing. Equal entries are not always repeated.

How the values were obtained:
Format in all cases: cell-based, mouse
Th9 cells [1] = assay: IL-9+ Th9 cells with oleic acid (S8I-J); details: OA 50 μM
Description: LXR-α binding site ChREBP binding site USF1 binding site […] 2.1 1.8 2.1 […] 1.9 […] 20 20 0 […] + OA ✱✱✱✱ MIGR1 M Ctrl + OAEpA […] SREBP1 Ctrl SREBP1EpA ✱✱✱✱ ✱✱✱ 3 2 1 0 TNF-α MIGR1 SREBP1 […] SREBP1EpA Figure S8. EpA-associated modulation of lipid metabolism and its impact on Figure S8 Th9 cell function. (A-C) GSEA of RNA-seq data showing intracellular sterol transport (A), sterol transfer activity (B), and long-chain fatty acid transport (C) pathways in control and EpA-treated Th9 cells. […] (K and L) Flow-cytometric analysis of IL-9 expression in Th9 cells transduced with either control (MIGR1) or SREBP1- […]

CD69 on Th9 cells = assay: Flow cytometry of CD69 on Th9 cells in vitro (Figure 5J, 7D); details: for CD69 (flow cytometric quantification): Figure 5J, single agent, individual replicates, (n = 5); for CD69 expression: MEK/ERK blockade, even with EpA, result in words
Procedure: (§1) Naive CD4^+ T cells were isolated from the spleens of C57BL/6J or CD45.1^+ OT-II mice using the MojoSort Mouse CD4 Naive T Cell Isolation Kit (BioLegend, catalog 480040), following the manufacturer’s protocol. Purified cells were cultured in RPMI-1640 medium supplemented with 10% FBS, 1% penicillin-streptomycin, and 0.1% β-mercaptoethanol (Gibco, catalog 21985023).
(§2) T cell polarization was initiated under plate-bound anti-CD3 (2 μg/mL, clone 17A2, BioXCell, catalog BE0002) and soluble anti-CD28 (1 μg/mL, clone 37.51, BioXCell, catalog BE0015-1) stimulation, with the addition of cytokines and neutralizing antibodies specific to each subset. For Th9 cells, these included IL-4 (10 ng/mL, Peprotech, catalog 400-04), TGF-β (1 ng/mL, EPOTO Biotech, catalog HF-2021), anti–IL-12 (5 μg/mL, clone C17.8, BioXCell, catalog BE0051), and anti–IFN-γ (10 μg/mL, clone XMG1.2, BioXCell, catalog BE0055); for Th1 cells, these included IL-12 (10 ng/mL, GenScript, catalog Z03211-50) and anti–IL-4 (5 μg/mL, clone 11B11, BioXCell, catalog BE0045); for Th2 cells, these included IL-4 (50 ng/mL), anti–IFN-γ (20 μg /mL), anti–IL-12 (5 μg/mL), Th17 cells: IL-6 (20 ng/mL, EPOTO Biotech, catalog MF-1006), TGF-β (1 ng/mL), IL-1β (10 ng/mL, Peprotech, catalog AF-211-11B), anti–IFN-γ (10 μg/mL), anti–IL-12 (5 μg/mL), and anti–IL-4 (5 μg/mL); and for Tregs, these included TGF-β (3 ng/mL). After 3 days of initial culture, cells were either collected for downstream assays or continued in extended culture with refreshed cytokines to maintain lineage commitment.
(§3) Details regarding staining panels (human and mouse), reagents (including clones and catalog numbers), acquisition settings, compensation/controls, and analysis procedures are provided in Supplemental Methods.
(§4) BioLegend, Cat. No. 422301 or Mouse TruStain FcX™, BioLegend, Cat. No. 101319) for 10 minutes at 4°C. For surface marker detection, cells were stained with fluorochrome-conjugated monoclonal antibodies in 96-well V-bottom plates and incubated on ice for 30 minutes. After staining, cells were washed twice and resuspended in FACS buffer for analysis.
(§5) Prior to intracellular cytokine staining, cells were restimulated for 4 hours with PMA (Absin, Cat. No. abs9107), ionomycin (Sigma-Aldrich, Cat. No. I0634), and brefeldin A (MedChemExpress, Cat. No. HY-16592). For intracellular cytokine staining, cells were first surface-stained as described above, then fixed and permeabilized using the BD Cytofix/Cytoperm™ kit (BD Biosciences, Cat. No. 554714) according to the manufacturer ’s protocol. Intracellular proteins were stained with directly conjugated antibodies targeting IL-9, IL-17a, IL-4, IFN-γ, TNF-α, FOXP3, p-ZAP70, Perforin, and […]
(§6) Antibodies used for mouse samples included those against IL-9 (PE, clone RM9A4, Biolegend, Cat. No. 514104), IFN-γ (PE, clone XMG1.2, Biolegend, Cat. No.
(§7) Cat. No. 103138), CD4 (APC/Cy7, clone E-AB-F1353UJ, Elabscience, Cat. No.
(§8) AF18028), CD8α (PerCP/Cy5.5, clone E-AB-F1104UJ, Elabscience, Cat. No. […]
(§9) clone E-AB-F1187UH, Elabscience, Cat. No. AF19854), TNF-α (BV421, clone MP6-XT22, Biolegend, Cat. No. 506328), FOXP3 (PE, clone FJK-16s, eBioscience, Cat. No.
(§10) Perforin (APC, clone S16009A, Biolegend, Cat. No. 154303) and Granzyme B (APC, […]
(§11) clone QA16A02, Biolegend, Cat. No. 372203). […]

PD-1 on Th9 cells = assay: Flow cytometry of PD-1 on Th9 cells in vitro (Figure 5K, 7E, S3D); details: for PD1 (flow cytometric quantification): Figure 5K, single agent, individual replicates, (n = 5); for PD-1 expression: MEK/ERK blockade, even with EpA, result in words
Procedure: as §1, §2, §3, §4, §5, §6, §7, §8, §9, §10, §11

[2] = system: mitochondria of Th9 cells; assay: Flow cytometry with MitoTracker Deep Red (Figure 4M, 5L, 7F, 7J); details: Figure 5L, single agent, individual replicates, (n = 3)
Procedure: […] Cells were incubated with the respective dyes, washed, and subjected to flow cytometry or fluorescence microscopy analysis. For ultrastructural assessment, mitochondrial number and diameter were quantified from high-resolution transmission electron microscopy (TEM) images using ImageJ software.

Th9 cells [3] = assay: IL-9+ Th9 cells with MEK or ERK inhibition (Figure 5H); details: for IL-9 (flow cytometric quantification): Figure 5H, single agent, individual replicates, (n = 5); for IL-9 production: trametinib 10 nM, temuterkib 100 nM, result in words
Procedure: (A) Identification and ranking of EpA-interacting proteins by affinity pulldown and LC-MS/MS, ordered by in silico binding energy predictions. […] (E) Flow-cytometric analysis of phosphorylated ZAP70 in Th9 cells 10 minutes after TCR activation (mean ± SEM, n = 3). (F) Pathway enrichment analysis of RNA-seq data showing MAPK/ERK-related pathways in EpA-treated Th9 cells. (G) Immunoblot analysis of total and phosphorylated MEK1/2 and ERK1/2 in control and EpA-treated Th9 cells. (H–L) Functional consequences of MEK or ERK inhibition in EpA-treated Th9 cells. […] Data in H–K are shown as mean ± SEM (n = 5) and in L as mean ± SEM (n = 3). Statistical significance was determined using 1-way ANOVA followed by Tukey’s test (E, H–L). *P < 0.05, **P < 0.01, ***P < 0.001, ****P < 0.0001.
as §2
The following pharmacological inhibitors were used at the indicated final concentrations: trametinib (MEK1/2 inhibitor; Selleck, catalog S4484) at 10 nM; temuterkib (ERK1/2 inhibitor; MCE, catalog HY-101494) at 100 nM; and fatostatin hydrobromide (SREBP inhibitor; MCE, catalog HY-14452A) at 5 μM. Dead cells were detected using Fixable Viability Dye eFluor 780 (eBioscience, catalog 65-0865).

TNF-α in Th9 cells = assay: Flow cytometry of TNF-α in Th9 cells in vitro (Figure 3F, 5I, 7C, S8M-N); details: for TNF (flow cytometric quantification): Figure 5I, single agent, individual replicates, (n = 5); for TNF-α expression: MEK/ERK blockade, even with EpA, result in words
Procedure: as §1, §2, §3, §4, §5, §6, §7, §8, §9, §10, §11

| Structure (SMILES) | Th9 polarization with oleic acid (Th9 cells [1]; result in words) | IL-9 gate number (Th9 cells [1]; representative flow plot, Figure S8I, EpA 10 μM) | CD69 (flow cytometric quantification) (CD69 on Th9 cells; listed as ERKin) | CD69 expression (CD69 on Th9 cells) | PD1 (flow cytometric quantification) (PD-1 on Th9 cells; listed as ERKin) | PD-1 expression (PD-1 on Th9 cells) | Mito tracker (flow cytometric quantification) ([2]; listed as ERKin) | IL-9 (flow cytometric quantification) (Th9 cells [3]; listed as ERKin) | IL-9 production (Th9 cells [3]) | TNF (flow cytometric quantification) (TNF-α in Th9 cells; listed as ERKin) | TNF-α expression (TNF-α in Th9 cells) | CD69 (flow cytometric quantification) (CD69 on Th9 cells; listed as MEKin) | PD1 (flow cytometric quantification) (PD-1 on Th9 cells; listed as MEKin) | Mito tracker (flow cytometric quantification) ([2]; listed as MEKin) | IL-9 (flow cytometric quantification) (Th9 cells [3]; listed as MEKin) | TNF (flow cytometric quantification) (TNF-α in Th9 cells; listed as MEKin) |
| --- | --- | --- | --- | --- | --- | --- | --- | --- | --- | --- | --- | --- | --- | --- | --- | --- |
| CCCCCCCC/C=C\CCCCCCCC(=O)O [oleic acid] | antagonizes Th9 polarization | 0.8 |  |  |  |  |  |  |  |  |  |  |  |  |  |  |
| Cn1nccc1Nc1nccc(-c2cc3c(s2)C(C)(C)N(CCN2CCOCC2)C3=O)n1 [temuterkib, reference compound] |  |  | 21.9 and 20.8 and 21.6 (2×) and 21.7 | significantly reduced | 218 and 220 and 219 and 229 and 222 | significantly reduced | 1115 (2×) and 1113 | 0.84 and 0.88 and 0.8 and 0.91 and 1 | almost completely abrogated IL-9 production | 1577 and 1578 and 1574 and 1552 and 1651 | significantly reduced |  |  |  |  |  |
| CC(=O)Nc1cccc(-n2c(=O)n(C3CC3)c(=O)c3c(Nc4ccc(I)cc4F)n(C)c(=O)c(C)c32)c1 [trametinib, reference compound] |  |  |  | significantly reduced |  | significantly reduced |  |  | almost completely abrogated IL-9 production |  | significantly reduced | 19.1 and 22.5 and 21.5 and 19.6 and 18.9 | 177 and 192 and 187 (2×) and 180 | 942 and 929 and 920 | 0.7 and 0.66 and 0.89 and 0.62 and 0.69 | 1461 and 1480 and 1452 (2×) and 1443 |
